Measurements from patent US20230121116A1, “USE OF QUINAZOLINE-BASED TYROSINE KINASE INHIBITORS FOR THE TREATMENT OF CANCERS WITH NRG1 FUSIONS” (Board of Regents, The University of Texas System, priority 2020, published 2023).

System: MDA175-VII (NRG1-DOC4 fusion) cells
Assay: Cell viability of MDA175-VII (NRG1-DOC4 fusion) cells, Cell Titer Glo assay
Format: cell-based
Details: 72 hours
Method: FIG. 1A. Representative dose response curves of MDA175-VII (NRG1-DOC4 fusion) treated with the indicated IACS novel quinazoline-based TKIs for 72 hours. Cell viability was determined by Cell Titer Glo Assay.
FIG. 3A. Representative dose response curves of MDA175-VII (NRG1-DOC4 fusion) treated with the indicated anti-HER2 therapy with or without low dose treatment of IACS inhibitors for 72 hours. Cell viability was determined by Cell Titer Glo Assay.
Cell viability was determined by the Cell Titer Glo assay.

[1] = MDA175-VII (NRG1-DOC4 fusion) cells treated with IACS inhibitors
[2] = MDA175-VII (NRG1-DOC4 fusion) cells treated with anti-HER2 antibodies with or without low dose IACS inhibitors

Compound	IC50 [1] [nM]	IC50 [2] [nM]
C=CC(=O)N1CCC(Oc2cc3c(Nc4ccccc4)ncnc3cc2OC)CC1 [IACS-070989]	1.03	–
T-DM1 [reference compound]	–	652
C=CC(=O)N1CC(Oc2ccc3ncnc(Nc4ccc(Cl)c(Cl)c4)c3n2)C1 [IACS-052336]	26.8	–
C=CC(=O)N1CC(Oc2cc3c(Nc4ccc(Br)c(Cl)c4)ncnc3cc2OC)C1 [IACS-070864]	0.979	–
C=CC(=O)N1CCC(Oc2cc3c(Nc4ccc(Cl)cc4Cl)ncnc3cc2OC)CC1 [IACS-070980]	4.46	–
Pertuzumab: recombinant, humanized monoclonal antibody that inhibits dimerization of HER2 [reference compound]	–	58.2
C=CC(=O)N1CCC(Oc2cc3c(Nc4ccc(Cl)c(Cl)c4F)c(C#N)cnc3cc2OC)CC1 [IACS-070709]	1.29	–
C=CC(=O)N1CCC(Oc2cc3c(Nc4ccc(Cl)c(Cl)c4)ncnc3cc2OC)CC1 [IACS-070979]	0.157	–
C=CC(=O)N1CCC(Oc2cc3c(Nc4ccc(Br)c(Cl)c4)ncnc3cc2OC)CC1 [IACS-070982]	0.296	–
C=CC(=O)N1CC(Oc2cc3c(Nc4ccc(Cl)c(Cl)c4)ncnc3cc2OC)C1 [IACS-015285]	0.268	–
C=CC(=O)N1CCC(Oc2cc3c(Nc4ccc(Cl)c(Cl)c4F)ncnc3cc2OC)C1 (centres unmarked) [IACS-070968]	3.12	–
C=CC(=O)N1CC(Oc2cc3c(Nc4ccc(Cl)cc4Cl)ncnc3cc2OC)C1 [IACS-070863]	10.5	–
C=CC(=O)N1CC(Oc2cc3c(Nc4ccccc4)ncnc3cc2OC)C1 [IACS-070871]	1.08	–
C=CC(=O)N1CC(Oc2cc3c(Nc4ccc(Cl)c(Cl)c4F)ncnc3cc2OC)C1 [IACS-015293]	0.16	–
